In PubChem BioAssay AID2060502 (Molecular Pharmacology Branch, DTP, NCI, 2025):

System: 885724-159-R-J1-PDC complex spheroid viability
Experiment: Anticancer human tumor 885724-159-R-J1-PDC patient-derived pancreatic adenocarcinoma cell line growth inhibition [GQUAD]
Conditions: for IC50: curve of first compound; for viability, T/C: stronger effect = lower value
Procedure, shortened: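 Multi-cell-type spheroids of tumor cells with HUVEC and mesenchymal stem cells, treated with drug combinations. Concentrations descend in half-log steps from near clinical Cmax, or from 10 microM where Cmax is unknown; viability read-out.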

[1] = second compound 0.0316 µM, first compound 0.0316 µM
[2] = second compound 0.0316 µM, first compound 0.1 µM
[3] = second compound 0.0316 µM, first compound 0.316 µM
[4] = second compound 0.0316 µM, first compound 1 µM
[5] = second compound 0.0316 µM, first compound 3.16 µM
[6] = second compound 0.0316 µM, first compound 10 µM
[7] = second compound 0.1 µM, first compound 0.0316 µM
[8] = second compound 0.1 µM, first compound 0.1 µM
[9] = second compound 0.1 µM, first compound 0.316 µM
[10] = second compound 0.1 µM, first compound 1 µM
[11] = second compound 0.1 µM, first compound 3.16 µM
[12] = second compound 0.1 µM, first compound 10 µM
[13] = second compound 0.316 µM, first compound 0.0316 µM
[14] = second compound 0.316 µM, first compound 0.1 µM
[15] = second compound 0.316 µM, first compound 0.316 µM
[16] = second compound 0.316 µM, first compound 1 µM
[17] = second compound 0.316 µM, first compound 3.16 µM
[18] = second compound 0.316 µM, first compound 10 µM
[19] = second compound 1 µM, first compound 0.0316 µM
[20] = second compound 1 µM, first compound 0.1 µM
[21] = second compound 1 µM, first compound 0.316 µM
[22] = second compound 1 µM, first compound 1 µM
[23] = second compound 1 µM, first compound 3.16 µM
[24] = second compound 1 µM, first compound 10 µM
[25] = second compound 3.16 µM, first compound 0.0316 µM
[26] = second compound 3.16 µM, first compound 0.1 µM
[27] = second compound 3.16 µM, first compound 0.316 µM
[28] = second compound 3.16 µM, first compound 1 µM
[29] = second compound 3.16 µM, first compound 3.16 µM
[30] = second compound 3.16 µM, first compound 10 µM
[31] = second compound 10 µM, first compound 0.0316 µM
[32] = second compound 10 µM, first compound 0.1 µM
[33] = second compound 10 µM, first compound 0.316 µM
[34] = second compound 10 µM, first compound 1 µM
[35] = second compound 10 µM, first compound 3.16 µM
[36] = second compound 10 µM, first compound 10 µM
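Also: spheroids exposed to agents for seven days before readout.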
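For viability, T/C in this document: percent of vehicle control viability where 100% = DMSO wells.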

`C=CCn1c(=O)c2cnc(Nc3ccc(N4CCN(C)CC4)cc3)nc2n1-c1cccc(C(C)(C)O)n1` + Cc1[nH]c2ccc(F)cc2c1-c1nc2c3cccnc3c3ncccc3c2[nH]1 was tested, and the IC50 (second compound 0.0316 µM) was greater than 10 µM, the IC50 (second compound 0.1 µM) was greater than 10 µM and the IC50 (second compound 0.316 µM) was greater than 10 µM. The IC50 (second compound 1 µM) was 0.558 µM, the IC50 (second compound 3.16 µM) was less than 0.0316 µM and the IC50 (second compound 10 µM) was 0.455 µM. For the same compound, the viability, T/C [1] was 88.7%, the viability, T/C [2] was 87.8% and the viability, T/C [3] was 71.1%. It also gave a viability, T/C [4] of 63.7%, a viability, T/C [5] of 68.8% and a viability, T/C [6] of 73.9%. The viability, T/C [7] was 90.3%, the viability, T/C [8] was 90% and the viability, T/C [9] was 84.3%. The viability, T/C [10] was 79.6%, the viability, T/C [11] was 63.5% and the viability, T/C [12] was 71.8%. The viability, T/C [13] was 83.1%, the viability, T/C [14] was 83.1% and the viability, T/C [15] was 68.7%. The viability, T/C [16] was 57.6%, the viability, T/C [17] was 74% and the viability, T/C [18] was 67.1%. For the same compound, the viability, T/C [19] was 70.9%, the viability, T/C [20] was 55.3% and the viability, T/C [21] was 52.1%. It also gave a viability, T/C [22] of 49.9%, a viability, T/C [23] of 50.9% and a viability, T/C [24] of 41.3%. The viability, T/C [25] was 12.9%, the viability, T/C [26] was 8.26% and the viability, T/C [27] was 11.1%. The viability, T/C [28] was 5.9%, the viability, T/C [29] was 9.96% and the viability, T/C [30] was 8.31%. It also gave a viability, T/C [31] of 63.5%, a viability, T/C [32] of 58.5% and a viability, T/C [33] of 47.3%. It also gave a viability, T/C [34] of 47%, a viability, T/C [35] of 50% and a viability, T/C [36] of 38.1%.
`COc1ncnc(C2CC2)c1-c1ncc2cnn(Cc3ccc(-c4nc(C(F)(F)F)cn4C(C)C)cc3)c2n1` + Cc1[nH]c2ccc(F)cc2c1-c1nc2c3cccnc3c3ncccc3c2[nH]1 was tested, and the IC50 (second compound 0.0316 µM) was greater than 10 µM, the IC50 (second compound 0.1 µM) was greater than 10 µM and the IC50 (second compound 0.316 µM) was greater than 10 µM. The IC50 (second compound 1 µM) was greater than 10 µM, the IC50 (second compound 3.16 µM) was less than 0.0316 µM and the IC50 (second compound 10 µM) was greater than 10 µM. The viability, T/C [1] was 85.5%, the viability, T/C [2] was 91.4% and the viability, T/C [3] was 93.7%. The viability, T/C [4] was 81.8%, the viability, T/C [5] was 89.9% and the viability, T/C [6] was 94%. The viability, T/C [7] was 101%, the viability, T/C [8] was 90% and the viability, T/C [9] was 86.3%. It also gave a viability, T/C [10] of 90.4%, a viability, T/C [11] of 91.3% and a viability, T/C [12] of 111%. For the same compound, the viability, T/C [13] was 96.7%, the viability, T/C [14] was 81.5% and the viability, T/C [15] was 76.1%. It also gave a viability, T/C [16] of 72.3%, a viability, T/C [17] of 88% and a viability, T/C [18] of 82.3%. The viability, T/C [19] was 70.3%, the viability, T/C [20] was 65.8% and the viability, T/C [21] was 62.8%. It also gave a viability, T/C [22] of 56.3%, a viability, T/C [23] of 70.5% and a viability, T/C [24] of 67.8%. For the same compound, the viability, T/C [25] was 23.7%, the viability, T/C [26] was 12.7% and the viability, T/C [27] was 10.7%. The viability, T/C [28] was 8.78%, the viability, T/C [29] was 11.8% and the viability, T/C [30] was 12.8%. It also gave a viability, T/C [31] of 69.6%, a viability, T/C [32] of 66% and a viability, T/C [33] of 63.7%. For the same compound, the viability, T/C [34] was 72.1%, the viability, T/C [35] was 69.3% and the viability, T/C [36] was 68.3%.
`CC(C)n1c(=O)n(C)c2cnc3cc(F)c(-c4ccc(OCCCN5CCCCC5)nc4)cc3c21` + Cc1cnc(CNC(=O)c2c(=O)c3ccc(N4CCCN(C)CC4)nc3n3c2sc2ccccc23)cn1 was tested, and the IC50 (second compound 0.0316 µM) was greater than 10 µM, the IC50 (second compound 0.1 µM) was greater than 10 µM and the IC50 (second compound 0.316 µM) was greater than 10 µM. For the same compound, the IC50 (second compound 1 µM) was greater than 10 µM, the IC50 (second compound 3.16 µM) was 6.48 µM and the IC50 (second compound 10 µM) was 5.27 µM. For the same compound, the viability, T/C [1] was 91.3%, the viability, T/C [2] was 94.1% and the viability, T/C [3] was 95.3%. The viability, T/C [4] was 114%, the viability, T/C [5] was 77.6% and the viability, T/C [6] was 65.7%. It also gave a viability, T/C [7] of 108%, a viability, T/C [8] of 107% and a viability, T/C [9] of 96.1%. For the same compound, the viability, T/C [10] was 106%, the viability, T/C [11] was 93.6% and the viability, T/C [12] was 67.2%. For the same compound, the viability, T/C [13] was 92.6%, the viability, T/C [14] was 93% and the viability, T/C [15] was 88.5%. The viability, T/C [16] was 108%, the viability, T/C [17] was 81.2% and the viability, T/C [18] was 64.2%. For the same compound, the viability, T/C [19] was 82.5%, the viability, T/C [20] was 87.1% and the viability, T/C [21] was 90.5%. The viability, T/C [22] was 94.6%, the viability, T/C [23] was 78.5% and the viability, T/C [24] was 53.1%. The viability, T/C [25] was 73.2%, the viability, T/C [26] was 73.4% and the viability, T/C [27] was 78.8%. The viability, T/C [28] was 68.3%, the viability, T/C [29] was 67.8% and the viability, T/C [30] was 39.9%. The viability, T/C [31] was 76.1%, the viability, T/C [32] was 71.1% and the viability, T/C [33] was 73.8%. It also gave a viability, T/C [34] of 70.8%, a viability, T/C [35] of 61.7% and a viability, T/C [36] of 35.3%.
`CC1COCCN1c1cc(-c2ccnn2C)c2ccnc(-c3ccn[nH]3)c2n1` (stereo not drawn) + Cc1cnc(CNC(=O)c2c(=O)c3ccc(N4CCCN(C)CC4)nc3n3c2sc2ccccc23)cn1 was tested, and the IC50 (second compound 0.0316 µM) was 2.66 µM, the IC50 (second compound 0.1 µM) was 5.19 µM and the IC50 (second compound 0.316 µM) was 4.11 µM. The IC50 (second compound 1 µM) was 1.59 µM, the IC50 (second compound 3.16 µM) was 0.609 µM and the IC50 (second compound 10 µM) was 0.728 µM. For the same compound, the viability, T/C [1] was 86.4%, the viability, T/C [2] was 81.4% and the viability, T/C [3] was 76.3%. It also gave a viability, T/C [4] of 54.9%, a viability, T/C [5] of 52.8% and a viability, T/C [6] of 38.5%. For the same compound, the viability, T/C [7] was 99.4%, the viability, T/C [8] was 81.1% and the viability, T/C [9] was 82.4%. The viability, T/C [10] was 73.5%, the viability, T/C [11] was 54% and the viability, T/C [12] was 41.3%. It also gave a viability, T/C [13] of 94.2%, a viability, T/C [14] of 90.3% and a viability, T/C [15] of 72.9%. For the same compound, the viability, T/C [16] was 62.2%, the viability, T/C [17] was 55.2% and the viability, T/C [18] was 41.3%. For the same compound, the viability, T/C [19] was 82.4%, the viability, T/C [20] was 74.1% and the viability, T/C [21] was 69.3%. It also gave a viability, T/C [22] of 57.2%, a viability, T/C [23] of 39.8% and a viability, T/C [24] of 33.9%. The viability, T/C [25] was 64.8%, the viability, T/C [26] was 65.7% and the viability, T/C [27] was 58.4%. It also gave a viability, T/C [28] of 42.7%, a viability, T/C [29] of 37.3% and a viability, T/C [30] of 30.9%. It also gave a viability, T/C [31] of 65.1%, a viability, T/C [32] of 61.6% and a viability, T/C [33] of 57.3%. For the same compound, the viability, T/C [34] was 48.2%, the viability, T/C [35] was 30.6% and the viability, T/C [36] was 25.2%.
